From ChEMBL document CHEMBL1268893, “A practical deuterium-free NMR method for the rapid determination of 1-octanol/water partition coefficients of pharmaceutical agents” (Bioorg Med Chem Lett, 2010)

Experiments:
[1] = Octanol-water partition coefficient, log P of the compound by deuterium-free NMR method; assay type: physicochemical
[2] = Octanol-water partition coefficient, log P of the compound; assay type: physicochemical
[3] = Octanol-water partition coefficient, log P of the compound at pH 7.0
[4] = Octanol-water partition coefficient, log P of the compound after partitioning between 0.1 M NaOH and 1-octanol by deuterium-free NMR method; assay type: physicochemical; settings: 1-octanol/0.1 M NaOH

logP [1]	logP [2]	logD [3]	logP [4]	SMILES
0.29	0.33	–	–	CC(=O)Nc1ccc(O)cc1 [ACETAMINOPHEN]
1.45	–	–	–	CCOc1ccc(NC(C)=O)cc1 [PHENACETIN]
–	0.88	–	0.9	CCN(CC)CCOC(=O)c1ccc(N)cc1 [PROCAINE]

Continued, molecule first:

SMILES	logP [1]	logP [2]	logD [3]	logP [4]
CC(=O)Oc1ccccc1C(=O)O [ASPIRIN]	1.15	–	–	–
CC[C@H]1OC(=O)[C@H](C)[C@@H](O[C@H]2C[C@@](C)(OC)[C@@H](O)[C@H](C)O2)[C@H](C)[C@@H](O[C@@H]2O[C@H](C)C[C@H](N(C)C)[C@H]2O)[C@](C)(O)C[C@@H](C)C(=O)[C@H](C)[C@@H](O)[C@]1(C)O [ERYTHROMYCIN]	2.01	2.54	–	–
O=C1CN(/N=C/c2ccc([N+](=O)[O-])o2)C(=O)N1 [NITROFURANTOIN]	-0.36	–	-0.68	–
